Reference: ChEMBL document CHEMBL3769309, “Design, synthesis and biological evaluation of bisthiazole-based trifluoromethyl ketone derivatives as potent HDAC inhibitors with improved cellular efficacy” (Eur J Med Chem, 2016)
Each block holds one molecule with its values, some of them ahead of it.

What was measured:
[1] = target: Histone deacetylase 4 (Homo sapiens, UniProt P56524); test: Inhibition of full length His6-tagged GST-fused recombinant human HDAC4 expressed in High5 insect cells using Ac-Lys-Tyr-Lys (e-acetyl)-AMC as substrate after 24 hrs by fluorescence assay; type: cell-based
[2] = Antiproliferative activity against human MM1S cells after 72 hrs by CellTiter 96 aqueous non-radioactive cell proliferation assay; type: functional, cell-based; details: MM1.S
[3] = target: Histone deacetylase 3 (Homo sapiens, UniProt O15379); test: Inhibition of full length His6-tagged GST-fused recombinant human HDAC3 expressed in High5 insect cells using Ac-Lys-Tyr-Lys (e-acetyl)-AMC as substrate after 24 hrs by fluorescence assay; type: cell-based
[4] = target: Histone deacetylase 1 (Homo sapiens, UniProt Q13547); test: Inhibition of full length His6-tagged GST-fused recombinant human HDAC1 expressed in High5 insect cells using Ac-Lys-Tyr-Lys (e-acetyl)-AMC as substrate after 24 hrs by fluorescence assay; type: cell-based
[5] = target: T1, Protein deacetylase HDAC6 (Homo sapiens, UniProt Q9UBN7); test: Inhibition of full length His6-tagged GST-fused recombinant human HDAC6 expressed in High5 insect cells using Boc-Lys (e-acetyl)-AMC as substrate after 3 hrs by fluorescence assay; type: cell-based
T1 sequence (Q9UBN7 whole entry): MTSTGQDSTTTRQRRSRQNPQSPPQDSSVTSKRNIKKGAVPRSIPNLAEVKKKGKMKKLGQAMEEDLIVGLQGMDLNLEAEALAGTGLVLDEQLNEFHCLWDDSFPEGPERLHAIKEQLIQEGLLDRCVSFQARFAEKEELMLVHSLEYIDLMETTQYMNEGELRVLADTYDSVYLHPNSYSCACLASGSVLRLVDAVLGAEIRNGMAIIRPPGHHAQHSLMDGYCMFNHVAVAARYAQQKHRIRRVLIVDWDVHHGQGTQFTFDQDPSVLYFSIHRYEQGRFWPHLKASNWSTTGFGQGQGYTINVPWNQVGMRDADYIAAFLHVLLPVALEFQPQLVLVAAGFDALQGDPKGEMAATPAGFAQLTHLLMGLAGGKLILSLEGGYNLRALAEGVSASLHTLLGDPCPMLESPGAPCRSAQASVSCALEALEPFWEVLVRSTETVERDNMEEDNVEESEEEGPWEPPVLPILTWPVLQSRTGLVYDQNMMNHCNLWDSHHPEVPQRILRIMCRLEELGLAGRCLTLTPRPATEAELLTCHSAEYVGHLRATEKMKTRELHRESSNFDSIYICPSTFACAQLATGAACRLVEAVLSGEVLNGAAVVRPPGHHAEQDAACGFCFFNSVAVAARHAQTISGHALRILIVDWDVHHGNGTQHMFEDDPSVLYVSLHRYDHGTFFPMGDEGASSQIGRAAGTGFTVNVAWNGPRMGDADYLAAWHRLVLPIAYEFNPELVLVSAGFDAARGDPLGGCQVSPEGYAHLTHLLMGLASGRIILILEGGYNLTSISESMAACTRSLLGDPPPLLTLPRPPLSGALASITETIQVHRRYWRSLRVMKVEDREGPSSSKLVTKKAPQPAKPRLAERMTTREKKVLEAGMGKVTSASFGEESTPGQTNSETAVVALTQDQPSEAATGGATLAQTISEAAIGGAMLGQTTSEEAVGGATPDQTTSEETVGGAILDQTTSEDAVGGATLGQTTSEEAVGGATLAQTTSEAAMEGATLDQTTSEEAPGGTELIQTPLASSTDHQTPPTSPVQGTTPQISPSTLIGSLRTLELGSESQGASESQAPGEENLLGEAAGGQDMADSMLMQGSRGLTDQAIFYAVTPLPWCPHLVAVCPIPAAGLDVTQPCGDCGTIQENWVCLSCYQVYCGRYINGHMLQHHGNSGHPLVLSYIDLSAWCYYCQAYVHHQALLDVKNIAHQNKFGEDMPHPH

[6] = test system: RPMI-8226; test: Induction of apoptosis in human RPMI8226 cells assessed as dead cells at 1 uM after 48 hrs by annexin V-FITC/propidium iodide staining-based flow cytometry (reference value: 2%); type: functional
[7] = Antiproliferative activity against human Mino cells after 72 hrs by CellTiter 96 aqueous non-radioactive cell proliferation assay; type: functional, cell-based
[8] = Antiproliferative activity against human JeKo1 cells after 72 hrs by CellTiter 96 aqueous non-radioactive cell proliferation assay; type: functional, cell-based; details: JeKo-1, 72 h
[9] = test system: RPMI-8226; test: Induction of apoptosis in human RPMI8226 cells assessed as viable cells at 0.3 uM after 48 hrs by annexin V-FITC/propidium iodide staining-based flow cytometry (reference value: 87.2%); type: functional; details: RPMI-8226, 48 h, read-out: Activity
[10] = test system: RPMI-8226; test: Induction of apoptosis in human RPMI8226 cells assessed as viable cells at 1 uM after 48 hrs by annexin V-FITC/propidium iodide staining-based flow cytometry (reference value: 87.2%); type: functional; details: RPMI-8226, 48 h, read-out: Activity
[11] = test system: RPMI-8226; test: Induction of apoptosis in human RPMI8226 cells assessed as dead cells at 0.3 uM after 48 hrs by annexin V-FITC/propidium iodide staining-based flow cytometry (reference value: 2%); type: functional
[12] = test system: RPMI-8226; test: Induction of apoptosis in human RPMI8226 cells assessed as late apoptotic cells at 1 uM after 48 hrs by annexin V-FITC/propidium iodide staining-based flow cytometry (reference value: 4.4%); type: functional
[13] = test system: RPMI-8226; test: Induction of apoptosis in human RPMI8226 cells assessed as increase in cleaved PARP level after 24 hrs by Western immunoblotting method; type: functional, cell-based
[14] = Antiproliferative activity against human RPMI8226 cells after 72 hrs by CellTiter 96 aqueous non-radioactive cell proliferation assay; type: functional, cell-based; details: RPMI-8226, 72 h
[15] = Antiproliferative activity against human NCI-H929 cells after 72 hrs by CellTiter 96 aqueous non-radioactive cell proliferation assay; type: functional, cell-based; details: NCI-H929, 72 h
[16] = test system: RPMI-8226; test: Induction of apoptosis in human RPMI8226 cells assessed as early apoptotic cells at 1 uM after 48 hrs by annexin V-FITC/propidium iodide staining-based flow cytometry (reference value: 6.3%); type: functional
[17] = test system: RPMI-8226; test: Induction of apoptosis in human RPMI8226 cells assessed as late apoptotic cells at 0.3 uM after 48 hrs by annexin V-FITC/propidium iodide staining-based flow cytometry (reference value: 4.4%); type: functional
[18] = test system: RPMI-8226; test: Induction of apoptosis in human RPMI8226 cells assessed as early apoptotic cells at 0.3 uM after 48 hrs by annexin V-FITC/propidium iodide staining-based flow cytometry (reference value: 6.3%); type: functional
[19] = test system: LP-1; test: Antiproliferative activity against human LP-1 cells after 72 hrs by CellTiter 96 aqueous non-radioactive cell proliferation assay; type: functional, cell-based; details: LP-1, 72 h
[20] = test system: RPMI-8226; test: cells; type: functional; details: Homo sapiens, RPMI-8226, 48 h

Chain of Histone deacetylase 4 (P56524 whole entry, the tested form may be a part): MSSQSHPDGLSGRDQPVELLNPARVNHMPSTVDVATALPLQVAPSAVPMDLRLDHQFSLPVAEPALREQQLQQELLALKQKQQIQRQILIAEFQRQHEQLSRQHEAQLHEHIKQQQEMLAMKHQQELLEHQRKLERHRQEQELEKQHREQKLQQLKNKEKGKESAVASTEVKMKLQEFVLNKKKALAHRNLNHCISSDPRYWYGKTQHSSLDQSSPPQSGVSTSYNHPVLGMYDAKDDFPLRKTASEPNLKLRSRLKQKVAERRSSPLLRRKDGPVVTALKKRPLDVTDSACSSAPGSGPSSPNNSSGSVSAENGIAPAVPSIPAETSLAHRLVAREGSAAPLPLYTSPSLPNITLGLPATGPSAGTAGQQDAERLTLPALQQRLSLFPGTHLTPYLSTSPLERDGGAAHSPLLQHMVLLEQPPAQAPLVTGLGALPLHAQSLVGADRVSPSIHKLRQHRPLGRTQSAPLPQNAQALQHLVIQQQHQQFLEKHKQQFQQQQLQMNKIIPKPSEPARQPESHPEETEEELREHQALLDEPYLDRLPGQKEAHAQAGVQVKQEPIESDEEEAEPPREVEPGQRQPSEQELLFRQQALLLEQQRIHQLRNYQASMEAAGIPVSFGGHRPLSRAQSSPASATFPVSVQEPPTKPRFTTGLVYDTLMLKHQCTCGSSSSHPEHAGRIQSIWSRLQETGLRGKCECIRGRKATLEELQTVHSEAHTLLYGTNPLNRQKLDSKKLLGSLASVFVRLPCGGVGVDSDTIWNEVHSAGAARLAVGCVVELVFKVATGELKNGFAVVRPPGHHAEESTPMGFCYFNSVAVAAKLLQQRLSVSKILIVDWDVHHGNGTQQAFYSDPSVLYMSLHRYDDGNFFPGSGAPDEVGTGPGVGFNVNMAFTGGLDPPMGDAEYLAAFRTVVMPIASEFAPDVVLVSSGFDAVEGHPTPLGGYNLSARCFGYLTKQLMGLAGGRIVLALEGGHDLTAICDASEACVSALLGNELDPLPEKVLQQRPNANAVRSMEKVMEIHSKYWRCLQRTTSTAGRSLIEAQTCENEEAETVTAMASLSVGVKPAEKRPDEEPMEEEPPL
Chain of Histone deacetylase 3 (O15379 whole entry, the tested form may be a part): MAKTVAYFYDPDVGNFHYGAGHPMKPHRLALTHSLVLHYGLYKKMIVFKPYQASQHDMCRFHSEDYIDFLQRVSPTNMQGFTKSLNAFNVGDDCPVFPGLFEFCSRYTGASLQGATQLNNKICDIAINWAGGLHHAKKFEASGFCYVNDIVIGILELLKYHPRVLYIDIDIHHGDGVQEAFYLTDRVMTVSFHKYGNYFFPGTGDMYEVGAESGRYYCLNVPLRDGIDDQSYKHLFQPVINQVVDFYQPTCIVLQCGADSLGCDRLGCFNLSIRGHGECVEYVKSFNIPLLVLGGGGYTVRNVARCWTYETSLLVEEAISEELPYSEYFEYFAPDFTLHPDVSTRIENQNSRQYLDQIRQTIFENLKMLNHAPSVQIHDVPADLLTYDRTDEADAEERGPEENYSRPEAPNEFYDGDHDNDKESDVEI
Chain of Histone deacetylase 1 (Q13547 whole entry, the tested form may be a part): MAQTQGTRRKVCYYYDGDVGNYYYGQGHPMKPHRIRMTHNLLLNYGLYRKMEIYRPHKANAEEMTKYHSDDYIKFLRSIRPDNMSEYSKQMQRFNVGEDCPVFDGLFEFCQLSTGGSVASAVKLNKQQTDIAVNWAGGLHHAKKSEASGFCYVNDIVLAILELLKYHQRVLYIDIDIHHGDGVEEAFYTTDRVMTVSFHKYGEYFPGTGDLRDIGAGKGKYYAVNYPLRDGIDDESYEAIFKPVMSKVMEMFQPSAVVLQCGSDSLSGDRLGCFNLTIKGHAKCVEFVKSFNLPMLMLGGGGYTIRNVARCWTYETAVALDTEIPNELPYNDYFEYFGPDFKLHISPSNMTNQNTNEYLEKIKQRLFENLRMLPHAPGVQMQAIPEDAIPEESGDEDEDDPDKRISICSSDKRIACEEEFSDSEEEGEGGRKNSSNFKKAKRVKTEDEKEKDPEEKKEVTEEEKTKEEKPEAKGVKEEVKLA

IC50 [1]: 133 nM
Structure (SMILES): O=C(NCCCCCC(=O)C(F)(F)F)c1nc(-c2nccs2)sc1C1CC1

Structure (SMILES): O=C(CCCCCCC(=O)Nc1ccccc1)NO [VORINOSTAT]
IC50 [2]: 820 nM

IC50 [3]: 8860 nM
IC50 [1]: > 10000 nM
IC50 [4]: > 10000 nM
IC50 [5]: > 10000 nM
Structure (SMILES): O=C(NCCCCC(O)C(F)(F)F)c1nc(-c2nccs2)sc1C1CC1 (stereo not drawn)

IC50 [3]: 65.1 nM
IC50 [1]: 68.2 nM
IC50 [4]: 66.1 nM
IC50 [5]: 58.4 nM
Structure (SMILES): O=C(NCCCCC(=O)C(F)(F)F)c1nc(-c2nccs2)sc1Cc1ccccc1

IC50 [1]: 23.4 nM
Structure (SMILES): O=C(NCCCCC(=O)C(F)(F)F)c1nc(-c2nc3c(s2)CCCC3)sc1C1CC1

IC50 [1]: 120 nM
Structure (SMILES): CC(C)Cc1sc(-c2nccs2)nc1C(=O)NCCCCC(=O)C(F)(F)F

IC50 [1]: 2090 nM
Structure (SMILES): Nc1ccccc1NC(=O)CCCCNC(=O)c1nc(-c2nccs2)sc1C1CC1

IC50 [1]: 32 nM
IC50 [5]: 23.4 nM
Structure (SMILES): Cc1cnc(-c2nc(C(=O)NCCCCC(=O)C(F)(F)F)c(C3CC3)s2)s1

Structure (SMILES): O=C(NCCCCC(=O)C(F)(F)F)c1nc(-c2nccs2)sc1C1CC1
Activity [6]: 7.7%
IC50 [7]: 120 nM
IC50 [8]: 64 nM
viability at 0.3 µM [9]: 57.8%
viability at 1 µM [10]: 28.2%
Activity [11]: 2.8%
Activity [12]: 50.7%
Activity [13]: Dose-dependent effect
IC50 [14]: 85 nM
IC50 [1]: 31.5 nM
IC50 [15]: 1230 nM
Activity [16]: 13.4%
Activity [17]: 23.9%
Activity [18]: 15.4%
IC50 [19]: 370 nM
viability at 3 µM [20]: 21.1%
IC50 [2]: 390 nM

IC50 [3]: > 10000 nM
IC50 [1]: > 10000 nM
IC50 [4]: > 10000 nM
IC50 [5]: > 10000 nM
Structure (SMILES): O=C(NCCCCCNC(=O)c1nc(-c2nccs2)sc1C1CC1)c1cccc(-c2noc(C(F)(F)F)n2)c1

IC50 [1]: > 10000 nM
Structure (SMILES): O=C(NO)NCCCCNC(=O)c1nc(-c2nccs2)sc1C1CC1

IC50 [1]: > 10000 nM
Structure (SMILES): O=C(NCCCC(=O)C(F)(F)F)c1nc(-c2nccs2)sc1C1CC1
